Source: patent US9205122B2, “Herbal composition comprising ginger and goldenrod for the treatment of cold and flu” (priority 2009, dated 2015)
Values after ≈ are worked out from the molar mass of the structure shown.

Experiments:
[1] = test system: Human Influenza Virus A/CA/04/09 H1N1; assay: organism not typed; format: cell-based; conditions: A/CA/04/09, MDCK, 72 h; mix as PL202:PL208
[2] = test system: human influenza virus A/WS/33, H1N1; assay: Plaque inhibition assay, influenza A/WS/33 on MDCK cell monolayer; format: cell-based; conditions: 0.05 mg/ml, read-out: inhibition of formation of lysis plaques
[3] = test system: influenza strain A/WS/33 (H1N1); assay: Mouse influenza infection model (preventive and curative arms); format: in vivo, CD-1 mice; conditions: curative arm, oral daily from day 0; Tamiflu 10, Nutracan 350 mg/kg
Description: Ginger, goldenrod and a combination thereof were assayed in a recognized animal model related to the prevention and treatment of the influenza virus (Cottey R, 2001). In this study, the ginger was assayed as a dry plant (rhizome) […] a CO2 extract. However, the relative quantity of the ginger dry plant used was equivalent to the ginger CO2 extract used in Example 1 (equivalent to the dry starting material). The ginger/goldenrod combination that was used also comprised blueberry dry powder. This formulation is named the Nutracan™ formulation and is described in Table II below.
In this model, CD-1 mice (10 females per group) were inoculated intranasally with the influenza strain A/WS/33 (H1N1) at 1×10^3 PFU as determined in a preliminary study (data not shown). […]
1) Seven groups of CD1 mice were randomized based on their weight (n=10). […] Mice were sacrificed when their general state (including abnormal behaviour, determined by a veterinarian) had deteriorated or they had lost more than 20% of their weight.

MDCK cells = conditions: no virus, 72 h, mix as PL202:PL208

NC(=O)c1ncn([C@@H]2O[C@H](CO)[C@@H](O)[C@H]2O)n1 [Ribavirin]
IC50 [1]: 5.26 µg/mL (≈ 21.5 µM)

CCOC(=O)C1=C[C@@H](OC(CC)CC)[C@H](NC(C)=O)[C@@H](N)C1 [Tamiflu, Oseltamivir phosphate]
inhibition at 50 µg/mL [2]: 52% | MDD (mean day of death) [3]: 7.6 | IC50 [1]: 0.1 µg/mL | TC50 (MDCK cells): >10.3 µg/mL | TC90 (MDCK cells): >10.3 µg/mL
